Values quoted from earlier work as cited in article PMC3273554 (Molecular Pharmaceutics, 2011).

Experiments:
T cells = conditions: intracellular IFN-γ staining
B16F10 = conditions: delivered with poly(I:C) and anti-CD40, boosted; prophylactic B16F10 model
HLA-A201 = conditions: 100µg (63.8nmol) with 50µg PADRE T helper epitope in IFA

Compound: SIYDFFVWL [deltaV]
- T cell responsiveness to Trp2 (T cells): increased T cell responsiveness
- Tumor growth delay compared to wild type peptide (B16F10): no increased growth delay

Compound: CCCS(=O)(=O)Nc1ccc(F)c(C(=O)c2c[nH]c3ncc(-c4ccc(Cl)cc4)cc23)c1F [vemurafenib]
- Response rate in trials (melanoma, BRAF V600E): ≤ 81%

Compound: SMYDFFVWL [Trp2 2M]
- IFN-γ elicited compared to vaccination with wild type peptide (HLA-A201): higher amounts of IFN-γ
